In publication PMC3210067 (Nature chemical biology, 2011):
Non-standard residues stand in square brackets, D forms with d. Residues, ends and D or L forms follow the SMILES beside them. NMeY = CN[C@@H](Cc1ccc(O)cc1)C(=O)O; NMeL = CN[C@@H](CC(C)C)C(=O)O; dNMeL = CN[C@H](CC(C)C)C(=O)O

Assays:
[1] = human liver microsomal stability; format: in vitro ADME; conditions: liver microsomes, pH 7.4
[2] = rat liver microsomal stability; format: in vitro ADME; conditions: liver microsomes, pH 7.4
H/D exchange studies = format: physicochemical; conditions: for H/D exchange of amide N-H (in words): CDCl3, 5% MeOH-d4/0.5% HOAc-d4
in vivo = conditions: male, Wistar-Han, rat, po, 10 mg/kg
human plasma stability = format: in vitro ADME; conditions: pH 7.4
[3] = CDCl3, 5% CD3OD / 0.5% CD3CO2D, 297 K

Work on `CC(C)C[C@@H]1NC(=O)[C@H](CC(C)C)N(C)C(=O)[C@@H](CC(C)C)N(C)C(=O)[C@H](CO)NC(=O)[C@H](Cc2ccc(O)cc2)N(C)C(=O)[C@H]2CCCN2C1=O` [3 L^1S] (cyclo(L[dP][NMeY]S[dNMeL][NMeL])) yielded a microsomal CLint at 1 µM [1] of 54 µL/min/mg and a microsomal CLint at 1 µM [2] of 98 µL/min/mg.
For `CC(C)C[C@@H]1NC(=O)[C@H](Cc2ccc(O)cc2)NC(=O)[C@H]2CCCN2C(=O)[C@H](CC(C)C)NC(=O)[C@H](CC(C)C)NC(=O)[C@@H](CC(C)C)NC1=O` [compound 1, cyclo[Leu, D-Leu, Leu, Leu, D-Pro, Tyr]] (cyclo(LL[dP]YL[dL])), the “H/D exchange of amide N-H (in words)” value (H/D exchange studies) was “exchanged within minutes or hours”.
In the case of `CC(C)C[C@@H]1NC(=O)[C@H](CC(C)C)NC(=O)[C@@H](CC(C)C)NC(=O)[C@H](Cc2ccc(O)cc2)NC(=O)[C@H]2CCCN2C(=O)[C@H](CC(C)C)NC1=O` [compound 2] (cyclo(LLL[dP]Y[dL])), the “H/D exchange of amide N-H (in words)” value (H/D exchange studies) is reported as “exchanged with solvent over a few hours”.
For `CC(C)C[C@@H]1NC(=O)[C@H](Cc2ccc(O)cc2)N(C)C(=O)[C@H]2CCCN2C(=O)[C@H](CC(C)C)NC(=O)[C@H](CC(C)C)N(C)C(=O)[C@@H](CC(C)C)N(C)C1=O` [compound 3] (cyclo(L[dNMeL][NMeL]L[dP][NMeY])), the “t1/2 (H-D exchange) NH (a)” value (H/D exchange studies; [3]) was greater than 24 h, the “t1/2 (H-D exchange) NH (b)” value (H/D exchange studies; [3]) was greater than 24 h and the “H/D exchange of amide N-H (in words)” value (H/D exchange studies) was “over a period of several days”. For the same compound, the AUC (in vivo) was 10.5 ng·h/mL.
In the case of `CC(C)C[C@@H]1NC(=O)[C@H](CC(C)C)N(C)C(=O)[C@@H](CC(C)C)N(C)C(=O)[C@H](Cc2ccc(O)cc2)N(C)C(=O)[C@H]2CCCN2C(=O)[C@H](CC(C)C)N(C)C1=O` [compound 4] (cyclo(L[NMeL][dP][NMeY][dNMeL][NMeL])), the microsomal CLint at 1 µM [1] is reported as greater than 320 µL/min/mg, the microsomal CLint at 1 µM [2] is reported as greater than 491 µL/min/mg and the half-life at 1 µM (human plasma stability) is reported as greater than 6 h. The “H/D exchange of amide N-H (in words)” value (H/D exchange studies) was “negligible exchange over 24 h”.
With `CC(C)C[C@@H]1C(=O)N(C)[C@@H](CC(C)C)C(=O)N(C)[C@@H](CC(C)C)C(=O)N2CCC[C@@H]2C(=O)N(C)[C@@H](Cc2ccc(O)cc2)C(=O)N(C)[C@@H](CC(C)C)C(=O)N1C` [compound 5] (cyclo([NMeL][NMeL][dP][NMeY][NMeL][dNMeL])) the microsomal CLint at 1 µM [1] was greater than 320 µL/min/mg, the microsomal CLint at 1 µM [2] was 317 µL/min/mg and the half-life at 1 µM (human plasma stability) was greater than 6 h.
`CC(C)C[C@@H]1C(=O)N(C)[C@@H](CC(C)C)C(=O)N(C)[C@@H](CC(C)C)C(=O)N(C)[C@@H](CC(C)C)C(=O)N2CCC[C@@H]2C(=O)N(C)[C@@H](Cc2ccc(O)cc2)C(=O)N1C` [compound 6] (cyclo([NMeL][NMeL][NMeL][dP][NMeY][dNMeL])) showed a microsomal CLint at 1 µM [1] of 191 µL/min/mg, a microsomal CLint at 1 µM [2] of 62.6 µL/min/mg and a half-life at 1 µM (human plasma stability) greater than 6 h.
